Patent US20230233543A1, “COMPOUNDS FOR THE TREATMENT OF COVID-19” (Dompe' Farmaceutici SPA, priority 2020, published 2023)
Where a name gives a salt, the structure may show the parent alone. Read-outs that look alike come from different tables or passages of the source.

Tests used:
[1] = tested on: SARS-CoV-2 (BetaCov/Belgium/GHB-03021/2020) in VeroE6-EGFP cells; experiment: microbe, parasite or virus in culture; assay type: cell-based; conditions: for IC50: Severe acute respiratory syndrome coronavirus 2
SARS-CoV-2 3CL-Pro = SARS-CoV-2 3CL-Pro (Severe acute respiratory syndrome coronavirus 2, UniProt P0DTD1); experiment: biochemical; conditions: read-out: 3CL-Pro Inhibition [%]
SARS-CoV-2 PLpro = SARS-CoV-2 PLpro (Severe acute respiratory syndrome coronavirus 2, UniProt P0DTD1); experiment: PLpro enzymatic assay (ISG15-AMC substrate); assay type: biochemical; conditions: read-out: PL_Pro Inhibition [%]

Compound: CC(C)(Sc1cc(C(C)(C)C)c(O)c(C(C)(C)C)c1)Sc1cc(C(C)(C)C)c(OC(=O)CCC(=O)O)c(C(C)(C)C)c1 [Succinobucol, Succinic acid 2,6-di-tert-butyl-4-[1-(3,5-di-tert-butyl-4-hydroxyphenylsulfanyl)-1-methylethylsulfanyl]phenyl monoester]
- % Confluence [1]: 18.73%
- % Inhibition [1]: 37.53%

Compound: c1ccc2c(c1)Sc1ccccc1N2C[C@H]1CN2CCC1CC2 (stereo in doubt) [Mequitazine, 10-(Quinuclidin-3-ylmethyl)-10H-phenothiazine]
- % Confluence [1]: 61.74%
- % Inhibition [1]: 62.09%
- IC50 ([1]; read-out: IC50): 5.99 µM

Compound: O=C(c1ccc(OCCN2CCCCC2)cc1)c1c(-c2ccc(O)cc2)sc2cc(O)ccc12 [Raloxifen hydrochloride, 1-[6-Hydroxy-2-(4-hydroxyphenyl)benzo[b]thien-3-yl]-1-[4-[2-(1-piperidinyl)ethoxy]phenyl]methanone]
- % Confluence [1]: 45.26%
- % Inhibition [1]: 70.75%
- IC50 ([1]; read-out: IC50): 9.78 µM

Compound: Cc1cc(O)c2c(=O)c3c(O)cc(O)c4c5c(O)cc(O)c6c(=O)c7c(O)cc(C)c8c1c2c(c34)c(c78)c65 [Hypericin, 1,3,4,6,8,13-Hexahydroxy-10,11-dimethylphenanthro[1,10,9,8-opqra]perylene-7,14-dione]
- % Confluence [1]: 20.85%
- IC50 [1]: 0.25 µM
- inhibition at 20 µM (SARS-CoV-2 3CL-Pro): 45.7%
- inhibition at 20 µM (SARS-CoV-2 PLpro): 40.1%

Compound: Nc1ccc2cc3ccc(N)cc3nc2c1 [Proflavine, 3,6-diaminoacridine]
- % Confluence [1]: 8.56%
- % Inhibition [1]: 208.4%
- inhibition at 20 µM (SARS-CoV-2 3CL-Pro; primary screen at 20 µM, without DTT, read at 15 min, normalized to zinc pyrithione (100%) and DMSO (0%)): 89.9%

Compound: CC(C)c1ccc2c(c1)C(N1CCN(CCO)CC1)Cc1ccc(F)cc1S2 (centres unmarked) [Isofloxythepin, 2-[4-(9-fluoro-3-propan-2-yl-5,6-dihydrobenzo[b][1]benzothiepin-5-yl)piperazin-1-yl]ethanol]
- % Confluence [1]: 67.67%
- % Inhibition [1]: 35.39%
- IC50 ([1]; read-out: IC50): 106 µM

Compound: CC(C)(C)NCc1ccc(Nc2ccnc3cc(Cl)ccc23)cc1O [N-tert-Butylisoquine, 2-[(tert-butylamino)methyl]-5-[(7-chloroquinolin-4-yl)amino]phenol]
- % Confluence [1]: 77.86%
- % Inhibition [1]: 44.99%
